Assay results published in US8633242B2, “Benzylidene indanones and processes for preparation and use thereof” (Council of Scientific and Industrial Research, priority 2011, dated 2014).
“Also recorded” adds a separate entry of the source.

Tests used:
[1] = tested on: various human cancer cell lines; assay: Cytotoxicity against various human cancer cell lines (summary statements); assay type: cell-based
Description: The benzylidene analogues were evaluated by Sulphorhodamine B Assay as per reported method [Skehan et al., J. Natl. Cancer Inst. 1990, 82, 1107]. The human cancer cell lines procured from National Cancer institute, Frederick, U.S.A. were used in present study. Cells were grown in tissue culture flasks in complete growth medium (RPMI-1640 medium with 2 mM glutamine, pH 7.4 supplemented with 10% fetal bovine serum, 100 μg/ml streptomycin and 100 units/ml penicillin) in a carbon dioxide incubator (37° C., 5% CO2, 90% RH). The cells at subconfluent stage were harvested from the flask by treatment with trypsin (0.05% in PBS (pH 7.4) containing 0.02% EDTA). Cells with viability of more than 98%, as determined by trypan blue exclusion, were used for determination of cytotoxicity. The cell suspension required concentration of cells was prepared in complete growth medium. Stock solution of 2×10^−2 M of compounds were prepared in DMSO and further dilution was carried out complete growth medium containing 50 μg/ml of gentamycin to obtained working test solution of required concentration. In vitro cytotoxicity against various human cancer cell lines was determined using 96-well cell culture plates. […] Cell growth was measured by staining with sulforhodamine B dye. […] The optical density (OD) was recorded on ELISA reader at 540 nm. […]

[2] = tested on: A549 (Lung); assay: Sulphorhodamine B cytotoxicity assay, A549; assay type: cell-based, human; settings: Homo sapiens, A549; SRB assay, 48 hours incubation; read-out: Human cancer cell lines IC50, A549 (Lung)
In short: (§1)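 Cells grown in RPMI-1640 with 10% FBS for 24 h, then exposed to compounds (DMSO stocks diluted in medium) for 48 h at 37 °C, 5% CO2. TCA-fixed cells stained with sulforhodamine B and the solubilised dye read at 540 nm as a measure of growth.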

[3] = tested on: PC-3 (prostate); assay: Sulphorhodamine B cytotoxicity assay, PC-3; assay type: cell-based, human; parameters: key to Human cancer cell lines IC50, PC-3 (prostate): Inactive: inactive, if IC50 > 100 μM; settings: SRB assay, 48 hours incubation
In short: as §1

[4] = tested on: THP-1 (Leukemia); assay: Sulphorhodamine B cytotoxicity assay, THP-1; assay type: cell-based, human
In short: as §1

[5] = tested on: HeLa (Cervix); assay: Sulphorhodamine B cytotoxicity assay, HeLa; assay type: cell-based, human; settings: Homo sapiens, HeLa; SRB assay, 48 hours incubation; read-out: Human cancer cell lines IC50, HeLa (Cervix)
In short: as §1

[6] = tested on: HCT (Colon); assay: Sulphorhodamine B cytotoxicity assay, HCT; assay type: cell-based, human
In short: as §1

[7] = tested on: MCF-7 (Breast cancer); assay: Sulphorhodamine B cytotoxicity assay, MCF-7; assay type: cell-based, human
In short: as §1

[8] = tested on: tubulin protein; assay: In-vitro tubulin polymerisation inhibition assay; assay type: biochemical
In short: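 Tubulin (3 mg/mL) in PIPES buffer pH 6.9 with MgCl2, EGTA, 1 mM GTP and 15% glycerol was incubated at 37 °C with varying compound concentrations. Polymerization was followed by absorbance at 340 nm every min for 1 h. IC50 is the concentration halving polymerization rate, from dose-dependent analysis.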

[9] = tested on: DU-145 (prostate); assay: Sulphorhodamine B cytotoxicity assay, DU-145; assay type: cell-based, human; parameters: key to Human cancer cell lines IC50, DU-145 (prostate): Inactive: inactive, if IC50 > 100 μM; settings: SRB assay, 48 hours incubation
In short: as §1

Which “anticancer activity against human cancer cell lines, in words” value [1] does the source give for `COc1cc(C2/C(=C/c3ccc4c(c3)OCO4)C(=O)c3cc(OC)c(OC)c(OC)c32)cc(OC)c1OC` (racemic) [Compound 8, 2-(3,4-Methylenedioxybenzylidine), 3-(3,4,5-trimethoxyphenyl), 4,5,6-trimethoxyindanone] here?
Its value is “exhibits anticancer activity”.

What about the IC50 [2] of the same molecule?
The IC50 was 11000 nM.

What about the “Human cancer cell lines IC50, PC-3 (prostate)” value [3] of the same molecule?
Its value is “Inactive”.

What about the “activity against leukemia cell lines (THP), in words” value [4] of the same molecule?
Its value is “potent activity”.

What about the IC50 ([4]; Homo sapiens, THP-1, SRB assay, 48 hours incubation, read-out: Human cancer cell lines IC50, THP-1 (Leukemia)) of the same molecule?
Its IC50 is 4900 nM.

And the IC50 [5]?
The IC50 was 23000 nM.

What about the “activity against HCT (Colon) cancer cell line, in words” value [6] of the same molecule?
Its value is “better activity”.

What about the IC50 ([6]; Homo sapiens, SRB assay, 48 hours incubation, read-out: Human cancer cell lines IC50, HCT (Colon)) of the same molecule?
Its IC50 is 100 nM.

And the “anticancer activity against human breast cancer cells (MCF-7), in words” value [7]?
The value was “better activity; also recorded: potent anticancer activity”.

What about the IC50 ([7]; Homo sapiens, MCF7, SRB assay, 48 hours incubation, read-out: Human cancer cell lines IC50, MCF-7 (Breast cancer)) of the same molecule?
The IC50 was 10 nM.

What about the “inhibition of tubulin polymerisation, in words” value [8] of the same molecule?
The value was “tubulin polymerisation inhibition; also recorded: strong inhibition”.

What about the IC50 ([8]; read-out: Tubulin polymerisation inhibition IC50, tubulin 3 mg/mL, 37° C., 340 nm, 1 h) of the same molecule?
Its IC50 is 630 nM.

What about the “Human cancer cell lines IC50, DU-145 (prostate)” value [9] of the same molecule?
The value was “Inactive”.
